Laboratory results: article PMC5218591 (Bioorganic & medicinal chemistry, 2016)

Molecular target: GPR88 (Homo sapiens, UniProt Q9GZN0)
Conditions: for fold less potent than 3: versus 3; for agonist activity at GPR88 (in words): purified compounds, Lance cAMP assay

Sequence of GPR88 (Q9GZN0 whole entry, species assumed): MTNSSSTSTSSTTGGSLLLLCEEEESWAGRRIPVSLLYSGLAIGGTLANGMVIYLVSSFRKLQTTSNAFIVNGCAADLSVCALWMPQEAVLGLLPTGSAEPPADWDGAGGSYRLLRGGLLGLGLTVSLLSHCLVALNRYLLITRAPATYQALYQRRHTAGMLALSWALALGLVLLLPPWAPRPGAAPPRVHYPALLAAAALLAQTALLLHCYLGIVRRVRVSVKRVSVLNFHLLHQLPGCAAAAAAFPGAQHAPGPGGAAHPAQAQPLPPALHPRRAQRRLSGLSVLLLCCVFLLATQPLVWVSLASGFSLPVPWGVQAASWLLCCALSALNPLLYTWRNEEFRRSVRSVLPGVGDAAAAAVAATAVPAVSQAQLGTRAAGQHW

CCCC(C)COc1ccc([C@@H](NC(=O)[C@@H](C)c2ccccc2)C(=O)OC)cc1 (stereo partly drawn) [Compound 11a, Methyl (2R)-2-[4-(2-methylpentyloxy)phenyl]-2-[(S)-2-phenylpropanamido]acetate]
fold less potent than 3: approximately 2.5 fold

CCCC(C)COc1ccc([C@@H](NC(=O)C(C)C2CCCCC2)C(=O)OC)cc1 (stereo partly drawn) [Compound 12d, Methyl (2R)-2-[4-(2-methylpentyloxy)phenyl]-2-[(R,S)-2-cyclohexylpropanamido]-acetate]
agonist activity at GPR88 (in words): completely inactive

CCCC(C)COc1ccc([C@@H](NC(=O)[C@@H](CC)c2ccccc2)C(=O)OC)cc1 (stereo partly drawn) [Compound 13aw, Methyl (2R)-2-[4-(2-methylpentyloxy)phenyl]-2-[(S)-2-phenylbutanamido]acetate]
agonist activity at GPR88 (in words): equipotent with 11a
fold more potent than 13a (versus 13a): 4.5 fold

CCCC(C)COc1ccc([C@@H](NC(=O)[C@H](C)c2ccccc2)C(=O)OC)cc1 (some centres unmarked) [Compound 13az]
agonist activity as percentage of TR-FRET signal of the control compound 11a (library screen at 1 μM final, crude compounds, 11a = 100%, Figure 2): less potent than the (S)-isomer

CCCC(C)COc1ccc([C@@H](NC(=O)[C@@H](C)c2ccccc2)C(=O)O)cc1 (stereo partly drawn) [Compound 11b, (2R)-2-[4-(2-Methylpentyloxy)phenyl]-2-[(S)-2-phenylpropanamido]acetic acid]
agonist activity at GPR88 (in words): completely inactive

CCCC(C)COc1ccc([C@@H](NC(=O)Cc2ccccc2)C(=O)OC)cc1 (stereo partly drawn) [Compound 13a, Methyl (2R)-2-[4-(2-methylpentyloxy)phenyl]-2-(2-phenylacetamido)acetate]
fold less potent than 11a (versus 11a): 5 fold

CCCC(C)COc1ccc([C@H](CO)NC(=O)Cc2ccccc2)cc1 (stereo partly drawn) [Compound 12a, N-{(1R)-2-Hydroxy-1-[4-(2-methylpentyloxy)phenyl]ethyl}-2-phenylacetamide]
fold less potent than 3: approximately 2 fold
